Results: patent publication US7071376B2, “Genes encoding p-coumarate 3-hydroxylase (C3H) and methods of use” (Purdue Research Foundation, priority 2000, dated 2006)
Where two headings read alike, the source gives them in different places. Values belong to the molecule of their own block, whether it stands above or below them.

Tests used:
[1] = biological target: T1, C3H polypeptide (CYP98A3) (Arabidopsis thaliana, UniProt O22203); assay: in vitro C3H assay with microsomes from yeast expressing CYP98A3
T1 sequence (O22203 1-508): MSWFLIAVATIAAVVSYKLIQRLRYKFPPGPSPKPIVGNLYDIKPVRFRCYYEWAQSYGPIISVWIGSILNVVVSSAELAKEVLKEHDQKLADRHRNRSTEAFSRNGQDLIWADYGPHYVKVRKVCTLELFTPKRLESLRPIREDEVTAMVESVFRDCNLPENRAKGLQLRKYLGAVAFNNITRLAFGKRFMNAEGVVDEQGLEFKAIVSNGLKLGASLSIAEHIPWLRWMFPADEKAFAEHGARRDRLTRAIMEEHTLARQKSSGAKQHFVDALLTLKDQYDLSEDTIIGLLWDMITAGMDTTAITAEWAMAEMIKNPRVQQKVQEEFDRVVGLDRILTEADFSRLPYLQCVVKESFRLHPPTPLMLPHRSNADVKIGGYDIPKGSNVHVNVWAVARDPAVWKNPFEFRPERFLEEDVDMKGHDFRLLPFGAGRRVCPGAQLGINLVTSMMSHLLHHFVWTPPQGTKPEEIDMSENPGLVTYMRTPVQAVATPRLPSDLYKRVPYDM
Protocol: For C3H assays, an NADPH regenerating system consisting of 1 mM NADP^+, 10 mM glucose-6-phosphate, and 1 unit glucose-6-phosphate dehydrogenase was pre-incubated at 30 C for 5 min to permit the generation of NADPH in the presence of one of the putative C3H substrates in a final volume of 400 μL of assay buffer. Assays were initiated by the addition of 100 μL of microsomes and were allowed to incubate for 60 min at 30C before being terminated by boiling. Assays were clarified by centrifugation for 20 min at 13,000 ×g, and were analyzed directly by HPLC on a Microsorb-MV C-18 column (Rainin, Woburn Mass.) using a gradient of solvent A (1.0% acetic acid in water) and solvent B (acetonitrile; 0 to 10% B in 5 min, 10 to 25% B in 25 min; flow rate 1 mL min^−1). C3H reaction products were quantified using UV detection (caffeic acid, 322 nm; caffeyl aldehyde, 340 nm; caffeic acid methyl ester, 324 nm). Assays conducted using microsomes isolated from yeast transformed with pYeDP60 served as negative controls. The apparent Km for p-coumarate methyl ester was determined using triplicate assays analyzed by the Eadie-Hofstee method(Cornish-Bowden, 1995).
To experimentally address these issues, C3H-containing microsomes were prepared for use in in vitro assays of enzymatic activity.

F5H = biological target: T2, F5H (Arabidopsis thaliana, UniProt Q42600); conditions: cited from earlier work
T2 construct: host or cells: yeast
T2 sequence (Q42600 1-520): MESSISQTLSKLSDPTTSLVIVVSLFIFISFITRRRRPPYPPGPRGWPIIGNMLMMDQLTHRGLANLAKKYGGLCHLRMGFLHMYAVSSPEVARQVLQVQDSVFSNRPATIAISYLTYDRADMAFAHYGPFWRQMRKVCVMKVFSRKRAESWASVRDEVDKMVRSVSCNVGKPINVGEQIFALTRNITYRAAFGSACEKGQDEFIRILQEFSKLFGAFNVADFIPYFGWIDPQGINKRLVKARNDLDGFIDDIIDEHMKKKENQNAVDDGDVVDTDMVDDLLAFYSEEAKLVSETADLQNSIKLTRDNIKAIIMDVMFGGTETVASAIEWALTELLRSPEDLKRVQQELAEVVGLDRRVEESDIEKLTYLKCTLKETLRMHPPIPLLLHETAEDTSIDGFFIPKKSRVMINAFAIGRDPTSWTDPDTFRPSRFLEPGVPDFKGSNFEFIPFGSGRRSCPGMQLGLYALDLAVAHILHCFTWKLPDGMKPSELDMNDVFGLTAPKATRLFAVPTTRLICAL

[2] = biological target: T1, C3H polypeptide (CYP98A3)
Protocol: WAT11 cells were transformed with pYeDP60, pYeDP60-REF8, and pYeDP60-ref8 (Gietz et al., 1992), cultured and then induced with galactose as described previously (Urban et al., 1994). For in vivo measurements of enzyme activity, cells were grown in media supplemented with 5 mM p-coumaric acid. At the end of the incubation period the medium was extracted with ethylacetate, and analyzed by HPLC as described above.
Finally, WAT11 yeast carrying the control vector and the YeDP60-REF8 vector were assayed for C3H polypeptide activity in vivo by adding p-coumarate directly to the medium of galactose-induced yeast cultures.

[3] = yeast microsomes, NADPH regenerating system, 60 min, 30 C, HPLC

SMILES: OCC=Cc1ccc(O)cc1 [p-hydroxycinnamyl alcohol]
activity of C3H toward substrate [1, 3]: no activity

SMILES: COc1cc(/C=C/CO)ccc1O [coniferyl alcohol]
Vmax (F5H; substrate of F5H): 6 pKat mg^−1 | Km (F5H; substrate of F5H, read-out: Km): 3 µM

activity of C3H toward substrate [1]: much higher levels of activity | Km ([1]; read-out: apparent Km, substrate of C3H, yeast microsomes, triplicate assays, Eadie-Hofstee method): 2500 ± 100 µM
SMILES: COC(=O)/C=C/c1ccc(O)cc1 [p-coumaroyl methyl ester]

SMILES: CC(C)(COP(=O)(O)OP(=O)(O)OC[C@H]1O[C@@H](n2cnc3c(N)ncnc32)[C@H](O)[C@@H]1OP(=O)(O)O)[C@@H](O)C(=O)NCCC(=O)NCCSC(=O)/C=C/c1ccc(O)cc1 [p-coumaroyl CoA]
activity of C3H toward substrate [1, 3]: no activity

SMILES: COc1cc(/C=C/C=O)ccc1O [coniferaldehyde]
Vmax (F5H; substrate of F5H): 5 pKat mg^−1 | Km (F5H; substrate of F5H, read-out: Km): 1 µM

SMILES: COc1cc(/C=C/C(=O)O)ccc1O [ferulate]
Km (F5H; ferulate hydroxylation by F5H): 1000 µM | activity of C3H toward substrate [1, 3]: No activity

hydroxylation of substrate added to yeast medium (product caffeic acid) [2]: capable of hydroxylating
SMILES: O=C(O)/C=C/c1ccc(O)cc1 [p-coumarate]
activity of C3H toward substrate [1]: so low that it precluded detailed kinetic analysis

SMILES: O=C(/C=C/c1ccc(O)cc1)O[C@@H]1O[C@H](CO)[C@@H](O)[C@H](O)[C@H]1O [1-O-p-coumaroyl—D-glucose]
activity of C3H toward substrate [1, 3]: no activity

SMILES: O=C/C=C/c1ccc(O)cc1 [p-coumaraldehyde]
activity of C3H toward substrate [1, 3]: Levels of activity comparable to those seen with p-coumarate
